Source: US20260184675A1, “CHIRAL ISOMERIC SULFITE COMPOUND AND APPLICATION THEREOF” (Chengdu Hanova BioSciences Co., Ltd, priority 2024, published 2026)

How the values were obtained:
eggs of Panonychus citri = test: Effect on hatching of eggs of Panonychus citri, leaf disc method; type: in vivo; conditions: 1 ppm; for Hatching rate (%), Replicate 1 / Hatching rate (%), Replicate 2 / Hatching rate (%), Replicate 3 / Number of hatched larvae 5 days after insecticide delivery, Replicate 1 / Number of hatched larvae 5 days after insecticide delivery, Replicate 2 / Number of hatched larvae 5 days after insecticide delivery, Replicate 3: Panonychus citri eggs; for Hatching rate (%), Replicate 1 / Hatching rate (%), Replicate 2 / Hatching rate (%), Replicate 3: 5 days after delivery; for Number of hatched larvae 5 days after insecticide delivery, Replicate 1 / Number of hatched larvae 5 days after insecticide delivery, Replicate 2 / Number of hatched larvae 5 days after insecticide delivery, Replicate 3: leaf disc
Description: • (1) Preparation of leaf discs containing eggs: 20 female adult mites of Tetranychus cinnabarinus were transferred onto leaf discs of Vicia faba with a diameter of 2.0 cm (with wetted filter paper at the bottom), then covered it with a lidded culture dish and cultivated under moisturizing conditions, the adult mites were removed within 36 hours and microscopic examination and counting were performed on leaf discs containing eggs. • (2) Investigation of egg population base: Before pesticide soaking, a microscopic examination was conducted on the egg basic number of each leaf disc, with 2 replicates set for each treatment. • (3) Pesticide soaking treatment: The leaf butterflies loaded with mite eggs were soaked in clear water and sulfite compounds for 10 seconds, respectively, then taken out and cultivated under moisturizing conditions. Each treatment should be repeated for no less than 3 times. • (4) Cultivation and observation: The […] were cultivated under normal conditions. Five days after insecticide delivery, the hatching status of mite eggs was investigated. • Note: The temperature and humidity conditions of the constant temperature and humidity incubator after the treatment should be controlled so as to avoid excessive temperature differences, which may cause generation and dripping of condensate water in the culture dish, resulting in abnormal death of eggs due to soaking in water; it is also necessary to ensure sufficient strong ambient light, without directing irradiating the leaves. • (5) Survey of Results: The experimental materials of each treatment group were regularly hydrated and moisturized, and the hatching of eggs was observed. On the 7th day after insecticide delivery, the number of hatched eggs for each treatment was recorded, and the survey of results was recorded in the original notebook. According to the experimental requirements and characteristics of agents, the survey time can be shortened or extended.
• 1) Surveying and recording the number of hatched eggs for each treatment. • 2) Photographing and recording whether there was any pesticide damage to the leaf discs of Vicia faba. • 3) Recording the developmental status of experimental mite eggs, behavior status of nymph mites, including abnormal phenomena such as delayed or stopped development of mite eggs, difficulty in breaking hull for nymph mites, or painful struggles after hatching, etc. • (6) Calculation method: Based on the survey data, the prevention and control effect of each treatment was calculated according to the following formula, and the calculation results were kept to two decimal places.
This test adopted the method in Test Example 1 of technical section, mainly used leaf disc method to explore the effect on hatching of eggs of Panonychus citri by compounds 1-(S,S), 1-(S,R), 1-(R,R), 1-(R,S), 1′-(S,S), 1′-(S,R), 1′-(R,R), 1′-(R,S), compound 1, compound 1′, S-10, R-10, S-10′, R-10′, compound 10, compound 10′, compound 19-(S,S), 19-(S,R), 19-(R,R), 19-(R,S), 19′-(S,S), 19′-(S,R), 19′-(R,R), 19′-(R,S), compound 19, and compound 19′. The concentration of all compounds was 1 ppm.

[1] = tested on: eggs of Tetranychus cinnabarinus; test: Control efficacy on eggs of Tetranychus cinnabarinus of compounds compounded with ginger rhizome / Kaempferia galanga L rhizome mixture (Bliss joint action); type: in vivo; conditions: for joint effect on controlling of eggs of Tetranychus cinnabarinus (in words): compounded with a mixture of ginger rhizome and Kaempferia galanga L rhizome (7:3); for Control efficacy for eggs of Tetranychus cinnabarinus on day 5 (%): single agent
Description: The ginger rhizome extract and volatile oil of Kaempferia galanga L rhizome were used to prepare a mixture of ginger rhizome and Kaempferia galanga L rhizome at a compounding ratio of 7:3, which was then compounded with compound 1, compound 10 and compound 19, and a leaf-disc method was used to evaluate the control efficacy on eggs of Tetranychus cinnabarinus based on the Experimental method in Example 1.
The ginger rhizome extract was prepared by extracting the ginger rhizome using a mixed solvent of ethyl acetate and ethanol at a ratio of 1:4.
According to the concept of independent joint action proposed by Bliss, the theoretical mortality rate P when the pesticides and acaricides are used in mixture can be calculated using the following equation: […]
Pm is the mortality rate (%) of the target when the first active component is used at a concentration of m; and Pn is the mortality rate (%) of the target when the second active component is used at a concentration of n.

Structure (SMILES)	inhibitory effect on the hatching of eggs of Panonychus citri (in words) (eggs of Panonychus citri)	Hatching rate (%), Replicate 1 (eggs of Panonychus citri) [%]	Hatching rate (%), Replicate 2 (eggs of Panonychus citri) [%]	Hatching rate (%), Replicate 3 (eggs of Panonychus citri) [%]	Number of hatched larvae 5 days after insecticide delivery, Replicate 1 (eggs of Panonychus citri)	Number of hatched larvae 5 days after insecticide delivery, Replicate 2 (eggs of Panonychus citri)	Number of hatched larvae 5 days after insecticide delivery, Replicate 3 (eggs of Panonychus citri)	further results
CCC(COS(=O)OCCF)Oc1ccc(Cl)cc1Cl [19′-(R,R)]	good inhibitory effects	0.00	0.00	0.00	0	0	0	–
CC[C@H](COS(=O)OCCF)Oc1ccc(Cl)cc1Cl (stereo partly drawn) [19′-(R,S)]	–	10.43	10.42	9.57	12	10	9	–
CC[C@@H](COS(=O)OCCF)Oc1ccc(Cl)cc1Cl (stereo partly drawn) [19′-(S,R)]	–	–	–	–	–	–	–	Hatching rate (%), Replicate 1 (eggs of Panonychus citri; listed as 19′-(S, R)): 9.57%; Hatching rate (%), Replicate 2 (eggs of Panonychus citri; listed as 19′-(S, R)): 10.28%; Hatching rate (%), Replicate 3 (eggs of Panonychus citri; listed as 19′-(S, R)): 10.08%; Number of hatched larvae 5 days after insecticide delivery, Replicate 1 (eggs of Panonychus citri; listed as 19′-(S, R)): 9; Number of hatched larvae 5 days after insecticide delivery, Replicate 2 (eggs of Panonychus citri; listed as 19′-(S, R)): 11; Number of hatched larvae 5 days after insecticide delivery, Replicate 3 (eggs of Panonychus citri; listed as 19′-(S, R)): 12
CC[C@@H](COS(=O)OCCF)Oc1ccc(Cl)cc1Cl (stereo partly drawn) [19′-(S,S)]	good inhibitory effects	–	–	–	–	–	–	Hatching rate (%), Replicate 1 (eggs of Panonychus citri; listed as 19′-(S, S)): 0.00%; Hatching rate (%), Replicate 2 (eggs of Panonychus citri; listed as 19′-(S, S)): 0.00%; Hatching rate (%), Replicate 3 (eggs of Panonychus citri; listed as 19′-(S, S)): 0.00%; Number of hatched larvae 5 days after insecticide delivery, Replicate 1 (eggs of Panonychus citri; listed as 19′-(S, S)): 0; Number of hatched larvae 5 days after insecticide delivery, Replicate 2 (eggs of Panonychus citri; listed as 19′-(S, S)): 0; Number of hatched larvae 5 days after insecticide delivery, Replicate 3 (eggs of Panonychus citri; listed as 19′-(S, S)): 0
CC(COS(=O)OCCF)Oc1ccc(Cl)cc1Cl (stereo not shown) [Compound 1]	good inhibitory effects	0.00	0.00	0.00	0	0	0	joint effect on controlling of eggs of Tetranychus cinnabarinus (in words) [1]: synergistic effect; Control efficacy for eggs of Tetranychus cinnabarinus on day 5 (%) ([1]; 0.1 mg/L): 17.12%; Control efficacy for eggs of Tetranychus cinnabarinus on day 5 (%) ([1]; 0.2 mg/L): 33.58%; Control efficacy for eggs of Tetranychus cinnabarinus on day 5 (%) ([1]; 0.3 mg/L): 52.19%
CC(COc1ccc(Cl)cc1Cl)OS(=O)OCCF (stereo not shown) [Compound 1′]	good inhibitory effects	0.93	0.00	0.00	1	0	0	–
CC(C)(COc1ccc(Cl)cc1Cl)OS(=O)OCCF (stereo not shown) [Compound 10]	good inhibitory effects	1.01	0.00	0.00	1	0	0	joint effect on controlling of eggs of Tetranychus cinnabarinus (in words) [1]: synergistic effect; Control efficacy for eggs of Tetranychus cinnabarinus on day 5 (%) ([1]; 0.1 mg/L): 11.45%; Control efficacy for eggs of Tetranychus cinnabarinus on day 5 (%) ([1]; 0.2 mg/L): 20.79%; Control efficacy for eggs of Tetranychus cinnabarinus on day 5 (%) ([1]; 0.5 mg/L): 68.12%
CC(C)(COS(=O)OCCF)Oc1ccc(Cl)cc1Cl (stereo not shown) [Compound 10′]	good inhibitory effects	0.00	0.73	0.92	0	1	1	–
CCC(COc1ccc(Cl)cc1Cl)OS(=O)OCCF (stereo not shown) [Compound 19]	good inhibitory effects	0.00	0.00	0.00	0	0	0	joint effect on controlling of eggs of Tetranychus cinnabarinus (in words) [1]: synergistic effect; Control efficacy for eggs of Tetranychus cinnabarinus on day 5 (%) ([1]; 0.1 mg/L): 20.57%; Control efficacy for eggs of Tetranychus cinnabarinus on day 5 (%) ([1]; 0.2 mg/L): 36.14%; Control efficacy for eggs of Tetranychus cinnabarinus on day 5 (%) ([1]; 0.25 mg/L): 48.73%
CCC(COS(=O)OCCF)Oc1ccc(Cl)cc1Cl (stereo not shown) [Compound 19′]	good inhibitory effects	0.00	0.00	0.00	0	0	0	–
CC(C)(COc1ccc(Cl)cc1Cl)OS(=O)OCCF (stereo not shown) [Compound R-10]	–	9.65	9.78	10.37	11	9	14	–
CC(C)(COc1ccc(Cl)cc1Cl)OS(=O)OCCF (stereo not shown) [Compound S-10]	good inhibitory effects	0.00	0.00	0.00	0	0	0	–
CC(C)(COS(=O)OCCF)Oc1ccc(Cl)cc1Cl (stereo not shown) [R-10′]	–	10.29	10.31	9.62	14	10	10	–
CC(C)(COS(=O)OCCF)Oc1ccc(Cl)cc1Cl (stereo not shown) [S-10′]	good inhibitory effects	0.00	0.00	0.00	0	0	0	–
